Data as given in patent US20250177392A1, “BROAD SPECTRUM INHIBITORS OF CYTOMEGALOVIRUS” (MICROBIOTIX, INC., priority 2022, published 2025).

Assays:
HHV-8 BCBL-1 = test: Herpes virus panel neutralization, HHV-8; assay type: cell-based, Human herpes virus 8
Method: (§1) To determine the specificity of MBX-4992, additional neutralization experiments were conducted using a panel of herpes viruses performed in the presence of MBX-4992. […] Collectively, the antiviral activity of MBX-4992 is equivalent to that of GCV indicating specific inhibition of CMV replication.

AD169 CMV virus = test: Time-of-addition assay; assay type: cell-based, Human cytomegalovirus; conditions: 10 μM added -60 to 90 minutes post-infection, infection quantified at 24 hpi
Method: FIG. 5A-C are graphs showing that NAPA compounds target an early, post-attachment step of the CMV virus. (A) MBX-4992 (10 μM) was added along a time course post infection with AD169 (MOI 0.2) from −60 to 90 minutes after virus addition to NHDF fibroblasts. Infection at 24 hours was quantified after an immunostain with an anti-IE1 antibody. Percent infection was normalized to untreated cells where media was added either-60 or 90 minutes after virus addition. A schematic of the experimental design is shown.
NHDF cells (10^4) were plated in a 96-well plate overnight. A working stock of MBX-4992 at 20 μM was used as a 2×to achieve a final concentration of 10 μM. […] At […], the cells were fixed with 4% paraformaldehyde, stained with a rabbit anti-IE1 antibody followed by an anti-rabbit Alexa 647, and analyzed using the Celigo cytometer. Using the −60 DMSO treated cells as 100% infectivity, the percent relative to maximum infection was determined from cells treated with drug at different time points.
To further analyze the step of CMV entry targeted by NAPA compound MBX-4992, a time of addition assay was performed. MBX-4992 (10 μM) was added at various times during […] infection (−60, 0, 15, 30, 60, and 90 minutes post-infection (mpi)) with AD169 CMV virus and viral infection was quantified at 24 hpi. […]

HHV-6B Z29 = test: Herpes virus panel neutralization, HHV-6B; assay type: cell-based, Human herpes virus 6B
Method: as §1

TB40/E = test: Plaque assay, MBX-4992 and ganciclovir alone and in combination; assay type: cell-based, Human cytomegalovirus; conditions: ARPE-19 and NHDF cells, 10 dpi; MBX-4992 1-20 μM, ganciclovir 2.5 μM
Method: At 10 day post-infection, representative whole well images of plaques >10,000 μm^2 (A and B) were quantified based on GFP fluorescence intensity and calculated relative to DMSO controls (C and D). Statistical tests were performed using ordinary one-way ANOVA with multiple comparisons to DMSO treated cells as a control and a Dunnett's post-test. *, p<0.05; **, p<0.01; ***, p<0.001; ****, p<0.0001.
At 10 days post-infection, representative whole well images of plaques >10,000 μm^2 (A and B) were quantified based on GFP fluorescence intensity and calculated relative to DMSO controls (C and D).

[1] = test system: CMV strains AD169^R and TB40/E; test: CMV infection assay, strains AD169^R and TB40/E together; assay type: cell-based, Human cytomegalovirus
[2] = test system: TR, Towne, and TB40/E strains; test: CMV infection assay of MBXC-4336 with further strains; assay type: cell-based, Human cytomegalovirus; conditions: NHDF cells, 24 hpi, IE1 (FIG. 11F-H)
Method: HCMV strains AD169 (A), TB40/E Flag YFP (B), Towne (C and G), TR (D and F), Merlin (E), and TB40/E (H) infection of NHDF cells pre-treated with DMSO and 0, 1, 5, or 20 μM MBX-4992 or MBXC-4336, respectively, were assessed at 24 hpi based on IE1 expression by anti-IE1 immunostain. TB40/E (I) (MOI 0.25) and AD169^R (J) (MOI 0.25) infection of HTR-svNeo cells treated with DMSO and 0, 1, 5, or 20 μM MBX-4992 were assessed at 24 hpi based on IE1 expression by anti-IE1 immunostain. The % infection was determined using DMSO-treated as 100% infection. The error bars represent values in triplicate. Statistical tests were performed using ordinary one-way ANOVA with multiple comparisons to DMSO treated cells as a control and a Dunnett's post-test *, p<0.05; **, p<0.01; ****, p<0.0001.
Fibroblasts and ARPE-19 cells (10^4) were plated in 96-well plates (Greiner, Monroe, NC). […] At 18 hours post infection (hpi) cells were stained using a rabbit anti-IE1 antibody followed by an anti-rabbit Alexa 647 and measured using a Celigo Cytometer (Parsons et al., Antiviral Res., 193:105124 (2021); Stein et al., Nat. Commun., 10:2699 (2019)). Using the DMSO treated cells as 100% infection, the percent infection of the NAPA compound-treated cells was determined. […]

HCMV strain AD169^R = test: CMV infection (neutralization) assay, GFP/IE1 readout 24 hpi, AD169^R; assay type: cell-based, Human cytomegalovirus; conditions: Human betaherpesvirus 5, AD169, Fibroblast
Method: Fibroblasts and ARPE-19 cells (10^4) were plated in 96-well plates (Greiner, Monroe, NC). The following day the cells were pretreated for 1 hour at 37° C. with increasing concentrations of the respective novel NAPA compounds described herein or DMSO in triplicate prior to infection with the respective viruses. At 18 hours post infection (hpi) cells were stained using a rabbit anti-IE1 antibody followed by an anti-rabbit Alexa 647 and measured using a Celigo Cytometer (Parsons et al., Antiviral Res., 193:105124 (2021); Stein et al., Nat. Commun., 10:2699 (2019)). Using the DMSO treated cells as 100% infection, the percent infection of the NAPA compound-treated cells was determined. The half maximal inhibitory (IC50) values were calculated using Prism9's nonlinear fit [inhibitor]-vs-response (four parameters) analysis of these averages and extrapolation to the concentration that would produce 50% infection relative to DMSO treatment.
To further evaluate the inhibitory properties of MBXC-4302 against CMV, we utilized the AD169 CMV virus strain containing the UL131-UL128 open reading frame of the HCMV strain TR and expressing EGFP (AD169^R) (Wang D. and Shenk T., Proc. Nat. Acad. Sci., USA, 102:18153-18158 (2005)) and TB40/E infection of human fibroblasts (NHDF) and ARPE-19 epithelial cells in the presence of increasing concentration of compound (FIG. 2A-D). Infection was analyzed 24 hours post infection (hpi) by measuring GFP fluorescence encoded by AD169^R or using an anti-IE1 antibody for staining TB40/E infected cells.
NAPA variants with modified groups were evaluated for inhibition of CMV infection in fibroblasts. AD169^R infected fibroblasts were treated with NAPA compounds MBX-4992, MBXC-4325, MBXC-4330, and MBXC-4336 (0-50 μM) and analyzed for infection at 24 hpi (FIG. 6A-D). The infected cells were probed for IE1 as an indication of virus infection.

Compound	SI (HHV-8 BCBL-1)	IC50 (HHV-8 BCBL-1; Homo sapiens, BCBL1) [µM]	inhibition of infection by time of addition (AD169 CMV virus)	SI (HHV-6B Z29)	IC50 (HHV-6B Z29; Human betaherpesvirus 6B) [µM]	viral plaques >10,000 μm^2, single drug (TB40/E)	infection of trophoblasts ([1]; HRT8svNEO trophoblasts, 24 hpi, IE1 immunostain)	IC50 ([1]; Human betaherpesvirus 5, AD169, read-out: IC50 values ranging) [µM]	effectiveness against further strains [2]	IC50 (HCMV strain AD169^R) [nM]
Cc1nc(Nc2ccc(NC(=O)c3ccco3)cc2)cc(N2CCCC2)n1 [MBX-4992]	>10	10	most effective at preventing infection when introduced prior to and within 30 mpi	>2	43.7	decreased	limited infection	1.9 to 4.8	–	–
Cc1nc(Nc2cccc(NC(=O)c3ccco3)c2)cc(N2CCCCC2)n1 [MBXC-4336]	–	–	–	–	–	–	–	–	effectiveness of MBXC-4336 was validated	2900
